From patent publication US20240180817A1, “PLANT FERMENTED LIQUID, PLANT FERMENTED PRODUCT PRODUCED USING GLUCONOBACTER THAILANDICUS STRAIN AND USE THEREOF” (LG HOUSEHOLD & HEALTH CARE LTD., priority 2022, published 2024)

Test system: human keratinocyte HaCaT
Assay: Hyaluronic acid synthesis, Quantikine ELISA Hyaluronan
Type: cell-based
Conditions: 30 ppb, 72 hours
Experimental: Samples were treated with human keratinocyte HaCaT for 72 hours at each concentration. Hyaluronic acid synthesis was compared with the control group (DMEM treatment containing 0% serum) using Quantikine ELISA Hyaluronan from R&D Systems to quantify the moisturizing ability.

Question: How did the “Hyaluronic Acid Synthesis Ability” value turn out when `CC1=C(/C=C/C(C)=C/C=C/C(C)=C/C(=O)O)C(C)(C)CCC1` [Retinoic acid] was run?
Answer: 18.6 % of control
